pIC50, pKi: −log10 of the molar value.
Key:
[1] = molecular target: ATR/ATRIP (Homo sapiens (Human), UniProt Q13535); assay: ATR/ATRIP kinase assay (TR-FRET, p53 Ser15 phosphorylation); format: biochemical; details: 0.5 μM ATP, 50 nM p53
Outline: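 Full-length human ATR/ATRIP co-expressed in mammalian cells (typically 0.3 nM) preincubated with compound 15 min at 22° C, then 50 nM cmyc-p53 and 0.5 μM ATP added for typically 25 min; HEPES pH 8.0 with Mg2+/Mn2+. p53 Ser15 phosphorylation read by HTRF (665/615 ratio); IC50 by nonlinear regression.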

[2] = tested on: phosphorylation of Chk1 (Ser 345) in HT29 colon adenocarcinoma cells; assay: pCHK1 cellular assay; format: cell-based; details: Homo sapiens, HT-29, hydroxyurea 3 mM, 4 h
Outline: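 HT29 cells plated ≥20 h, then compound (1 nM–30 μM final) with hydroxyurea (3 mM final) added together for 4 h at 37 °C. After MeOH/Triton fixation-permeabilisation, anti-pChk1 immunostaining plus nuclear stain; nuclear pChk1 imaged by confocal high content reader, reported as % positive nuclei.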

[3] = molecular target: Kv11.1 (hERG) ion channel (Homo sapiens (Human), UniProt Q12809); assay: Kv11.1 (hERG) ion channel activity, whole cell patch clamp in HEK293; format: cell-based; details: for pKi: heading: hERG Ki, HEK293 cells stably expressing hERG, patch clamp
Method: Kv11.1 (hERG) Ion Channel Activity
In this assay, a potential in vitro effect of test compounds on the Kv11.1 (hERG) ion channel current is investigated which mediates the rapidly activating, delayed rectifier cardiac potassium current (IKr). The assay is performed with a stable Kv11.1 (hERG) transfected human embryonic kidney cell line (HEK293) by whole cell patch clamp technique carried out at room temperature.
The Kv11.1 (hERG) ion channel blocker quinidine is used as reference compound. The effects of the test compounds and quinidine are normalized to the corresponding vehicle control. The whole cell recordings are carried out with an automated patch clamp device Patchliner™, Nanion Technologies, Munich). Hereby the Patch Clamp measurements run on silicate-coated chips with a hole of a defined diameter. Solutions, cell suspension and compounds are applied by a Teflon-laminated pipette needle through microfluidic silicate-laminated channels. Commercial patch clamp amplifiers (EPC10, HEKA Elektronik Dr. Schulze GmbH, Germany) are used for the patch clamp recordings. HEK293 cells stably expressing the hERG gene are held at −80 mV. Steady-state inhibition of Kv11.1 (hERG) potassium current due to test/reference compound application is measured using a pulse pattern with fixed amplitudes: 51 ms/−80 mV, 500 ms/+40 mV, 500 ms/−40 mV, 200 ms/−80 mV. The hERG-specific voltage protocol is repeated at 10 s intervals. The leak current is subtracted by a P4 leak subtraction. Cells are resuspended in extracellular patch clamp solution (EC) and applied into the chip. After trapping the cell, the EC is exchanged by seal enhancer solution (SE) to improve the sealing procedure. When the whole cell configuration is attained, seal enhancer is washed out by the application of EC. The recording is started in EC for 1.5 min. Afterwards DMSO (vehicle control, 0.1% DMSO) is applied and the control current is measured for 3 min. Following control steady-state current, test compound is applied twice at the same concentration and the tail current is measured for 3.5 min each. For the determination of a concentration-relationship, the test compound is applied as a cumulative concentration-response curve and each concentration is measured for 5 min. The reference compound quinidine is treated in the same way. The effect on Kv11.1 (hERG) ion channel activity is judged from the tail current amplitude monitored at −40 mV (current of interest, COI). Results are calculated from the last recorded current traces. Changes in Kv11.1 (hERG) ion channel activity between control value, defined as 100% Kv11.1 (hERG) ion channel activity, application of test compound and application of quinidine is reported as percent change of control value of COI. An aliquot of test compound is collected for concentration verification during the recording. The sample is immediately measured by HPLC and the final compound concentration within the assay is calculated according to a calibration curve.

Sequence of Kv11.1 (hERG) ion channel (Q12809 whole entry): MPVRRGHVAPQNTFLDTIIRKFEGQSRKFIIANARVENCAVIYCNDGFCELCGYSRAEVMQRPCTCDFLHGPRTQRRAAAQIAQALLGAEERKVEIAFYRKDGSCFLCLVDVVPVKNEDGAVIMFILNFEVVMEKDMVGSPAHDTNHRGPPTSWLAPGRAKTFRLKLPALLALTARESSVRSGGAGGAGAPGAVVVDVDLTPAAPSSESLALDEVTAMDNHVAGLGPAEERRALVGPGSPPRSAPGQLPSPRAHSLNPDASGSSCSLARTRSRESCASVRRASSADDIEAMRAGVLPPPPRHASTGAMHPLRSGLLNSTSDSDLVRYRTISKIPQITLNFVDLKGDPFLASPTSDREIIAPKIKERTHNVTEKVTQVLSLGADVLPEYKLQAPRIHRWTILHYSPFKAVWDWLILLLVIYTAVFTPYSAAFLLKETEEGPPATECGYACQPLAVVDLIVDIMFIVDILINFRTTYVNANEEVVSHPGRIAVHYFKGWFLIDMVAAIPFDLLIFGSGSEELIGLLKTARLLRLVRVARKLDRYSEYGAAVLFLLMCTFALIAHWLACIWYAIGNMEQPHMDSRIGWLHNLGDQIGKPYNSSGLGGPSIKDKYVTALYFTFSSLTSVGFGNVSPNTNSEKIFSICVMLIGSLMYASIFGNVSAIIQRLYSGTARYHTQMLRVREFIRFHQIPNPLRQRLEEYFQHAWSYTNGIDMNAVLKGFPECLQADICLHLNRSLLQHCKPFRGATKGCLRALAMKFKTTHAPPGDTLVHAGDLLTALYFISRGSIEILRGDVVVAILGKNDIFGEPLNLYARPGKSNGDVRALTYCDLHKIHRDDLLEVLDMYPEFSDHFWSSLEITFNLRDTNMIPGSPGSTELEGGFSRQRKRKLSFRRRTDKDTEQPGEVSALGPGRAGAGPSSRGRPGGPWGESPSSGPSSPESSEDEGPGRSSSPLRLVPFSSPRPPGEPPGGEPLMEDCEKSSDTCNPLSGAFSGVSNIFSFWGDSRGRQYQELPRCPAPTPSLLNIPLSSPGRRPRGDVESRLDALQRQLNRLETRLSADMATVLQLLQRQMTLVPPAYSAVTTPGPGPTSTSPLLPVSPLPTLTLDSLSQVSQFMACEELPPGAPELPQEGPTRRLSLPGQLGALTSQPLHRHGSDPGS
Sequence of ATR/ATRIP (Q13535 whole entry): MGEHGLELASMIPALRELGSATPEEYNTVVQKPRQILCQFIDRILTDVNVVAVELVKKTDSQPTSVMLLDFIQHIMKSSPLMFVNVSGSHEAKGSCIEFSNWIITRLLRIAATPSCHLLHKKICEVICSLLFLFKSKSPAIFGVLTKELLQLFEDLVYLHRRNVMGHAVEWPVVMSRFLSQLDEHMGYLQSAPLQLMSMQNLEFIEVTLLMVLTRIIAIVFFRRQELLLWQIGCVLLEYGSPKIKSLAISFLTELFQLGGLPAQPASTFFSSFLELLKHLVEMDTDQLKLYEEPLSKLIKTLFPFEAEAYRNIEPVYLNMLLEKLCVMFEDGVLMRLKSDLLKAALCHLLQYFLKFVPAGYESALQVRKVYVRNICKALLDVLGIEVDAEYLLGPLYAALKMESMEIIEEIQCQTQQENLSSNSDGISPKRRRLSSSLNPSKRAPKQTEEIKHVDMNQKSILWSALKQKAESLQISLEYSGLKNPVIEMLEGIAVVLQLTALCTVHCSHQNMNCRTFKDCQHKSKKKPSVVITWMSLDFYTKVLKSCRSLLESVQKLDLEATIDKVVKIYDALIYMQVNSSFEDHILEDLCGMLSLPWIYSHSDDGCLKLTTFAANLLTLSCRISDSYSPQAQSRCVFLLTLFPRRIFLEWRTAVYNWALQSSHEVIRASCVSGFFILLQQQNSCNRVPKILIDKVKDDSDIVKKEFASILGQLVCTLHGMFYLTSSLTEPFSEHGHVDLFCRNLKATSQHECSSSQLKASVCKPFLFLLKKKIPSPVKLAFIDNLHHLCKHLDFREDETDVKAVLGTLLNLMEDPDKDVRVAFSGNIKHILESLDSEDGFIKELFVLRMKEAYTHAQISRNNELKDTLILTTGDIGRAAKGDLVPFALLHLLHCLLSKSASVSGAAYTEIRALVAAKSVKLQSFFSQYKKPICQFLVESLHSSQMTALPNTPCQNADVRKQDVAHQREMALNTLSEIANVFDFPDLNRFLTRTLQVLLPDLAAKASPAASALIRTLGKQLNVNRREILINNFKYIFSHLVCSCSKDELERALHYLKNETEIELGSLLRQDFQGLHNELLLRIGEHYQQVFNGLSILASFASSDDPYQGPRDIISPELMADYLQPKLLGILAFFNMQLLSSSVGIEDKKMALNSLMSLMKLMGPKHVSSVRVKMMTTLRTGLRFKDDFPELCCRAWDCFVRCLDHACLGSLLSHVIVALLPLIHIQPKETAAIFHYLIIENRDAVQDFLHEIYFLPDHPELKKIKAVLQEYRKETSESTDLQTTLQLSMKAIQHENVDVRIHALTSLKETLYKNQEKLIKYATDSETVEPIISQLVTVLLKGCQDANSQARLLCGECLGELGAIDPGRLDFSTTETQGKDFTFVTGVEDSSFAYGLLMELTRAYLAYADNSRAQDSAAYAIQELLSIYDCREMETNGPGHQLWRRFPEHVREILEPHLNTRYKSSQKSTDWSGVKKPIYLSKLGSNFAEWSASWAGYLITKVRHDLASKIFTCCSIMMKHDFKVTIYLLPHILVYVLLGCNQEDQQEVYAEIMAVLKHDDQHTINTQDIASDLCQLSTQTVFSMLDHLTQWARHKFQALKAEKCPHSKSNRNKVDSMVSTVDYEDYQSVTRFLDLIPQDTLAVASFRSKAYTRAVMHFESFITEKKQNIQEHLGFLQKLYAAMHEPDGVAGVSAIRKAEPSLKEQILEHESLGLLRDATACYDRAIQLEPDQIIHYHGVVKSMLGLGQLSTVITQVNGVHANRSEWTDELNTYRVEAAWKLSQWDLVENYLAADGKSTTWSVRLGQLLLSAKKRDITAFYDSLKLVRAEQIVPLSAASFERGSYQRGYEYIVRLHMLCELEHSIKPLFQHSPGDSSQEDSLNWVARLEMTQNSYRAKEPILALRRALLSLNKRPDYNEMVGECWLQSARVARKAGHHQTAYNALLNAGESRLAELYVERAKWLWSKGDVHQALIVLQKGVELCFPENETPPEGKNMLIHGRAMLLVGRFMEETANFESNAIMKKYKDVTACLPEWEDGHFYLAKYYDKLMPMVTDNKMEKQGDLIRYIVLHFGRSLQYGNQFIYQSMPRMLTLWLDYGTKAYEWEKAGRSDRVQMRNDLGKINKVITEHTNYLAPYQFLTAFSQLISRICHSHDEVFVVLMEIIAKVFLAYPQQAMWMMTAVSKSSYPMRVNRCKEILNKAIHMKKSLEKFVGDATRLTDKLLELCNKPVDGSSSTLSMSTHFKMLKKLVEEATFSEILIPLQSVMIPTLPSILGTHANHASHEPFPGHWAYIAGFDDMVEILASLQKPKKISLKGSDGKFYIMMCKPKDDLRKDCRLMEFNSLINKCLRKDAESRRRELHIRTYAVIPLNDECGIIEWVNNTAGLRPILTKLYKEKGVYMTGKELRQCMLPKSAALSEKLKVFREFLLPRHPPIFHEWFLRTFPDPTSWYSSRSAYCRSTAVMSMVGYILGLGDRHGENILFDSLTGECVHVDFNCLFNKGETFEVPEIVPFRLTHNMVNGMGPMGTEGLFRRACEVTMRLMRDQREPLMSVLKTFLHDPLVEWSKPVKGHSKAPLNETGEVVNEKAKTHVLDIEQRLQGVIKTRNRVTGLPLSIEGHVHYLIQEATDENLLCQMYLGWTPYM
Sequence of ATR/ATRIP (Q8WXE1 whole entry partner): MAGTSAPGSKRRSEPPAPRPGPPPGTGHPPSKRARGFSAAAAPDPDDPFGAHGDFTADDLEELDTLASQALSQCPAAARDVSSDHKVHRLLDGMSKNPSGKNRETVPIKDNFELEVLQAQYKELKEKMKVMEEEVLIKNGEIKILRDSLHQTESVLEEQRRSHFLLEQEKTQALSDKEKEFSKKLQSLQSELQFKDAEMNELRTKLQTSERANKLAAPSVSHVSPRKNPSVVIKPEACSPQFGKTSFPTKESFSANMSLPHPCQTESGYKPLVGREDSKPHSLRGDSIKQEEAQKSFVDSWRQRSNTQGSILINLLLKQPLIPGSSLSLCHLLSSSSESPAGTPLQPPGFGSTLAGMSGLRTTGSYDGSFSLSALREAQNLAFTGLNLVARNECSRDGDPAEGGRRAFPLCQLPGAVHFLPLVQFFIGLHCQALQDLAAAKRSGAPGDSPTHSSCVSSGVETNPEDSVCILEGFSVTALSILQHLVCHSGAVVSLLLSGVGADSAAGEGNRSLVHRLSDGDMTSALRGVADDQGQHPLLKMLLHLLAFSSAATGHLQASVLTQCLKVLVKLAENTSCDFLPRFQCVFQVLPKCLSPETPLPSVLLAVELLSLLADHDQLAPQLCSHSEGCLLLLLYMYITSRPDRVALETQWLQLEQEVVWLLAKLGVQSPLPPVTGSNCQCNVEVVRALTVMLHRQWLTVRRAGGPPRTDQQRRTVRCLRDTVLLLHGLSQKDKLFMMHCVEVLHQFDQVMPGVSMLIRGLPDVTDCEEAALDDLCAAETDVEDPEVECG

Row | Compound | pIC50 [1] | pIC50 [2] | hERG % effect @ conc ([3]; @ 30 μM) [%] | pKi [3] | hERG % effect @ conc ([3]; @ 10 μM) [%]
1 | Cc1ccc(-c2cc(N3CCOC[C@H]3C)nc3c(-c4cc[nH]n4)n[nH]c23)cn1 [Compound 2, 5-((R)-3-Methyl-morpholin-4-yl)-7-(6-methyl-pyridin-3-yl)-3-(1H-pyrazol-3-yl)-1H-pyrazolo[4,3-b]pyridine] | 9.10 | 7.00 to 8.00 |  | < 5.00 | −3
2 | C[C@@H]1COCCN1c1cc(-c2ccc([S+](C)[O-])cc2)c2c(n1)c(-c1cc[nH]n1)nn2C (stereo partly drawn) [Compound 5, 7-(4-Methanesulfinyl-phenyl)-1-methyl-5-((R)-3-methyl-morpholin-4-yl)-3-(1H-pyrazol-3-yl)-1H-pyrazolo[4,3-b]pyridine] | 8.46 | 7.00 to 8.00 |  | < 5.00 | −22
3 | C[C@@H]1COCCN1c1cc(-c2ccc(S(C)(=O)=O)cc2)c2c(n1)c(-c1cc[nH]n1)nn2C [Compound 7, 7-(4-Methanesulfonyl-phenyl)-1-methyl-5-((R)-3-methyl-morpholin-4-yl)-3-(1H-pyrazol-3-yl)-1H-pyrazolo[4,3-b]pyridine] | 8.64 | 7.00 to 8.00 |  | < 5.00 | −16
4 | C[C@@H]1COCCN1c1cc(C(C)(C)O)c2c(n1)c(-c1cc[nH]n1)nn2C [Compound 25, 2-[1-Methyl-5-((R)-3-methyl-morpholin-4-yl)-3-(1H-pyrazol-3-yl)-1H-pyrazolo[4,3-b]pyridin-7-yl]-propan-2-ol] | 8.37 | 7.00 to 8.00 |  | < 5.00 | −1
5 | C[C@@H]1COCCN1c1cc(C2(S(C)(=O)=O)CC2)c2c(n1)c(-c1cc[nH]n1)nn2C [Compound 26, 7-(1-Methanesulfonyl-cyclopropyl)-1-methyl-5-((R)-3-methyl-morpholin-4-yl)-3-(1H-pyrazol-3-yl)-1H-pyrazolo[4,3-b]pyridine] | 9.10 | 7.00 to 8.00 | −24 | < 4.52 | 
6 | C[C@@H]1COCCN1c1cc([C@H]2CCCOC2)c2c(n1)c(-c1ccn[nH]1)nn2C [Compound 68, 1-Methyl-5-((R)-3-methyl-morpholin-4-yl)-3-(2H-pyrazol-3-yl)-7-(R)-tetrahydro-pyran-3-yl-1H-pyrazolo[4,3-b]pyridine] |  | 7.00 to 8.00 | −35 | < 4.52 | 
7 | C[C@@H]1COCCN1c1cc([C@@H]2CCCOC2)c2c(n1)c(-c1ccn[nH]1)nn2C [Compound 69, 1-Methyl-5-((R)-3-methyl-morpholin-4-yl)-3-(2H-pyrazol-3-yl)-7-(S)-tetrahydro-pyran-3-yl-1H-pyrazolo[4,3-b]pyridine] |  | 7.00 to 8.00 | −29 | < 4.52 | 
8 | C[C@@H]1COCCN1c1cc([C@@H]2CCOC2)c2c(n1)c(-c1ccn[nH]1)nn2C [Compound 71, 1-Methyl-5-((R)-3-methyl-morpholin-4-yl)-3-(2H-pyrazol-3-yl)-7-(S)-tetrahydro-furan-3-yl-1H-pyrazolo[4,3-b]pyridine] |  | 7.00 to 8.00 |  | < 5.00 | −16
9 | C[C@@H]1COCCN1c1cc(-c2ccnn2C(F)F)c2c(n1)c(-c1ccn[nH]1)nn2C [Compound 78, (3R)-4-{7-[1-(Difluoromethyl)-1H-pyrazol-5-yl]-1-methyl-3-(1H-pyrazol-5-yl)-1H-pyrazolo[4,3-b]pyridin-5-yl}-3-methylmorpholine] |  | 7.00 to 8.00 | −12 | < 4.52 | 

Now from value to molecule, other results behind:

Row | pIC50 [1] | pIC50 [2] | Compound | hERG % effect @ conc ([3]; @ 30 μM) [%] | pKi [3] | hERG % effect @ conc ([3]; @ 10 μM) [%]
10 | 8.64 | 7.00 to 8.00 | Cc1ccc(-c2cc(N3CCOC[C@H]3C)nc3c(-c4cc[nH]n4)nn(C)c23)cn1 [Compound 1, 1-Methyl-5-((R)-3-methyl-morpholin-4-yl)-7-(6-methyl-pyridin-3-yl)-3-(1H-pyrazol-3-yl)-1H-pyrazolo[4,3-b]pyridine] | −28 | < 4.52 | 
11 | 9.10 | 7.00 to 8.00 | Cc1ncccc1-c1cc(N2CCOC[C@H]2C)nc2c(-c3cc[nH]n3)nn(C)c12 [Compound 4, 1-Methyl-5-((R)-3-methyl-morpholin-4-yl)-7-(2-methyl-pyridin-3-yl)-3-(1H-pyrazol-3-yl)-1H-pyrazolo[4,3-b]pyridine] |  | < 5.00 | −12
12 | 8.68 | > 8.00 | Cc1nc([S+](C)[O-])ccc1-c1cc(N2CCOC[C@H]2C)nc2c(-c3cc[nH]n3)nn(C)c12 (stereo partly drawn) [Compound 8, 7-(6-Methanesulfinyl-2-methyl-pyridin-3-yl)-1-methyl-5-((R)-3-methyl-morpholin-4-yl)-3-(1H-pyrazol-3-yl)-1H-pyrazolo[4,3-b]pyridine] |  | < 5.00 | −6
13 | 9.05 | 7.00 to 8.00 | Cc1nc(S(C)(=O)=O)ccc1-c1cc(N2CCOC[C@H]2C)nc2c(-c3cc[nH]n3)nn(C)c12 [Compound 11, (3R)-4-[7-(6-Methanesulfonyl-2-methylpyridin-3-yl)-1-methyl-3-(1H-pyrazol-3-yl)-1H-pyrazolo[4,3-b]pyridin-5-yl]-3-methylmorpholine] |  | < 5.00 | −5
14 | 9.22 | 7.00 to 8.00 | C[C@@H]1COCCN1c1cc(-c2ccnc3[nH]ccc23)c2c(n1)c(-c1cc[nH]n1)nn2C [Compound 15, 1-Methyl-5-((R)-3-methyl-morpholin-4-yl)-3-(1H-pyrazol-3-yl)-7-(1H-pyrrolo[2,3-b]pyridin-4-yl)-1H-pyrazolo[4,3-b]pyridine] |  | < 5.00 | −24
15 | 8.44 | 7.00 to 8.00 | Cc1cc(S(C)(=O)=O)ncc1-c1cc(N2CCOC[C@H]2C)nc2c(-c3cc[nH]n3)nn(C)c12 [Compound 17, 7-(6-Methanesulfonyl-4-methyl-pyridin-3-yl)-1-methyl-5-((R)-3-methyl-morpholin-4-yl)-3-(1H-pyrazol-3-yl)-1H-pyrazolo[4,3-b]pyridine] |  | < 5.00 | 5
16 | 8.21 | 6.00 to 7.00 | CC(C)n1cc(-c2cc(N3CCOC[C@H]3C)nc3c(-c4cc[nH]n4)nn(C)c23)cn1 [Compound 18, 7-(1-Isopropyl-1H-pyrazol-4-yl)-1-methyl-5-((R)-3-methyl-morpholin-4-yl)-3-(1H-pyrazol-3-yl)-1H-pyrazolo[4,3-b]pyridine] |  | < 5.00 | −14
17 | 8.47 | 7.00 to 8.00 | Cc1nn(C)cc1-c1cc(N2CCOC[C@H]2C)nc2c(-c3cc[nH]n3)nn(C)c12 [Compound 19, 7-(1,3-Dimethyl-1H-pyrazol-4-yl)-1-methyl-5-((R)-3-methyl-morpholin-4-yl)-3-(1H-pyrazol-3-yl)-1H-pyrazolo[4,3-b]pyridine] |  | < 5.00 | −6
18 | 8.92 | 7.00 to 8.00 | C[C@@H]1COCCN1c1cc(-c2ccncc2F)c2c(n1)c(-c1cc[nH]n1)nn2C [Compound 20, 7-(3-Fluoro-pyridin-4-yl)-1-methyl-5-((R)-3-methyl-morpholin-4-yl)-3-(1H-pyrazol-3-yl)-1H-pyrazolo[4,3-b]pyridine] |  | < 5.00 | −11
19 | 8.21 | 7.00 to 8.00 | C[C@@H]1COCCN1c1cc(-c2ccn(CCF)n2)c2c(n1)c(-c1cc[nH]n1)nn2C [Compound 34, 7-[1-(2-Fluoro-ethyl)-1H-pyrazol-3-yl]-1-methyl-5-((R)-3-methyl-morpholin-4-yl)-3-(1H-pyrazol-3-yl)-1H-pyrazolo[4,3-b]pyridine] |  | < 5.00 | −1

From patent US12371430B2, “5-morpholin-4-yl-pyrazolo[4,3-b]pyridine derivatives” (Merck Patent GmbH, priority 2018, dated 2025)
